“Also recorded” adds a separate entry of the source. Read-outs that look alike come from different tables or passages of the source.

The subject of series [1] is phosphorylated and total AMPK, MAPK, EGFR, HER and S6 ribosomal protein. The series is described as follows: Western blot of phosphorylated and total signalling proteins in breast cancer cells. The series is classed as cell-based. Here is the method: (§1) MCF-7(HER2), SK-BR-3, MDA-MB-231 and MDA-MB-468 breast cancer cells are treated with different doses of 2-Methyl-2-[4-(3-methyl-2-oxo-8-quinolin-3-yl-2, 3-dihydro-imidazo[4,5-c]quinolin-1-yl)-phenyl]-propionitrile, also known as COMPOUND A, metformin or both agents in combination. Levels of phosphorylated and total AMPK, MAPK, EGFR, HER and S6 ribosomal protein are evaluated by western blot. Cell proliferation analyses are performed in triplicates using the WST-1 and crystal violet colorimetric assays.
In general terms: Immunoblotting shows a protein as a band on a membrane.

Series [2] deals with H520 non-small cell lung tumors. The series is described as follows: H520 xenograft 20-day tumor growth inhibition assay. In kind it is in vivo, nude mice. The following applies: for Mean Tumor Vol. Change / Regression / T/C: Day 20. Here is the method:
EGFR-null H520 human non-small cell lung cancer (NSCLC) cells are treated with different doses of 2-Methyl-2-[4-(3-methyl-2-oxo-8-quinolin-3-yl-2, 3-dihydro-imidazo[4,5-c]quinolin-1-yl)-phenyl]-propionitrile monotosylate salt (also known as COMPOUND A) or 5-(2,6-di-morpholin-4-yl-pyrimidin-4-yl)-4-trifluoromethyl-pyridin-2-ylamine hydrochloride salt (also known as COMPOUND C), a single dose of metformin or both agents in combination, The H520 human NSCLC cells (NCl-H520, ATCC-HTB-182, available from American Type Culture Collection, Rockville, Md. US) are isolated from a sample of a lung mass taken from a patient with squamous cell carcinoma of the lung (Banks-Schlegel et at Cancer Res, 45(3): 1187-1197 (1985).
H520 tumor cells are grown in RPMI 1640 medium containing 100 units/mL penicillin G sodium, 100 μg/ML streptomycin sulfate, and 25 µg/mL gentamicin. The medium is supplemented with 10% fetal bovine serum, 2 mM glutamine, and 1 mM sodium pyruvate, and buffered with 10 mM HEPES and 0.075% sodium bicarbonate. The cells are cultured in tissue culture flasks in a humidified incubator at 37° C., in an atmosphere of 5% CO2 and 95% air. The cells are harvested for injection into 8-week old female nu/nu (nude) mice (Harlan Laboratories, Indianapolis, Ind.) by detaching the monolayers with 1× trypsin and resuspending at 5×10^7cells/mL in phosphate-buffered saline containing 50% Matrigel.
(§2) 0.2 mL of H520 tumor cell suspension (1×10^7 cells) is injected subcutaneously in the right flank of 8-week old female nu/nu (nude) mice (Harlan Laboratories, Indianapolis, Ind.) having a body weight (BW) range of 18.1-26.9 g on Day 1 of the study. Tumors are monitored twice weekly and then daily as their mean volume approaches 120-180 mm^3. […] Tumor weight can be estimated with the assumption that 1 mg is equivalent to 1 mrn^3 of tumor volume.
(§3) The 11 groups of nude mice are treated as follows. One group of eight mice serves as Controls (C or Control) for all analyses and is administered intraperitoneally (i.p.) 50 mM sodium acetate at pH 4 (Vehicle 1) and then administered by oral gavage (p.o.) a composition comprising 10% N-methylpyrrolidone: 90% polyethylene glycol 300 (PEG 300) (Vehicle 2). […] Metformin is dissolved in 50 mM sodium acetate at pH 4 for dosing,
(§4) Compound C is stored at −20° C. protected from light. Stock solutions (10×) in 100% N-methylpyrrolidone (NMP) are prepared every five days, aliquotted, and stored in the dark at room temperature. On each treatment day, stock solution aliquots are diluted with polyethylene glycol (PEG300) to provide the formulated drug (Compound A or Compound C) in 10% NMP: 90% PEG300, Dosing solutions are protected from light and the formulated drug is administered within 1 hour after preparation.
(§5) For combination therapies, Compound A or Compound C is administered by oral gavage (p.o.) within 30 minutes after the intraperitoneal (i.p.) administration of metformin, except on Day 20 when Compound A or Compound C is given immediately after metformin.
(§6) Paclitaxel (Natural Pharmaceuticals, Inc., Beverly, Mass., USA) is administered by bolus tail-vein injections (i.v.) once daily on alternate days for five doses. Paclitaxel is dissolved in 50% ethanol and 50% Cremophor® EL to prepare a 10× stock solution stored at room temperature. On each day of dosing, an aliquot of the pad itaxel stock solution is diluted with 5% dextrose in water to yield a dosing solution containing 5% ethanol and 5% Cremophor® EL.
Statistical and graphical analyses was conducted by determining the difference in tumor volume between Day 1 (the start of dosing) and the endpoint day for each animal that remained on study on Day 20. Antitumor activity is expressed as % T/C (comparing the mean tumor volume change between the endpoint day and Day 1 for the treatment group to the Control). A T/C≦40% is classified as potential therapeutically active.

The procedure of series [3]: as §2, §3, §4, §5, §6
Series [4] has as its system MCF-7(HER2), SK-BR-3, MDA-MB-231 and MDA-MB-468 breast cancer cells. Particulars: different doses, SK-BR-3, MDA-MB-231, MDA-MB-468, triplicates. Here is the method:
as §1

Where [5] appears, read: Compound A 41.1 mg/kg p.o., 1x daily.
Where [6] appears, read: Compound A 68.5 mg/kg p.o., 1x daily.
Setting [7] is: Compound C 32.7 mg/kg p.o., 1x daily.
Where [8] appears, read: Compound C 54.4 mg/kg p.o., 1x daily until day 7 (stopped due to toxicity).
Where [9] appears, read: Paclitaxel 30 mg/kg i.v., 1x on alternate days for 5 doses.
Setting [10] is: breast cancer cells, listed as metformin.
[11] abbreviates: Metformin 192.3 mg/kg i.p., 1x daily.

A word on the T/C: it is the ratio of treated to control. Turning to `Cn1c(=O)n(-c2ccc(C(C)(C)C#N)cc2)c2c3cc(-c4cnc5ccccc5c4)ccc3ncc21` [Compound A, 2-Methyl-2-[4-(3-methyl-2-oxo-8-quinolin-3-yl-2,3-dihydro-imidazo[4,5-c]quinolin-1-yl)-phenyl]-propionitrile], in series [1] (breast cancer cells), the “levels of p-S6 ribosomal protein” value is reported as “potently decreases”, the p-AKT result is “potently decreases” and the “p-MAPK / MAPK phosphorylation” value is “increases MAPK phosphorylation”. For the same molecule, in series [2] (setting [5]), the “Mean Tumor Vol. Change” value is 598 mm^3, the Regression entry is given as “None” and the T/C is on record as 60% (ns^†). In series [2] (setting [6]), the “Mean Tumor Vol. Change” value stood at 466 mm^3, the Regression result was “None” and the T/C is recorded as 47% (ns^†). For the same molecule, the Dead/Total in series [3] (female, nu/nu (nude), mouse, in vivo, po, 41.1 mg/kg) was 0/8. In addition, the Dead/Total in series [3] (female, nu/nu (nude), mouse, in vivo, po, 68.5 mg/kg) is given as 1/8. In addition, the “Mean Body Weight Change” value in series [3] (mouse, in vivo, po, 68.5 mg/kg) is listed as −1.3%, Day 7.
Take `Nc1cc(C(F)(F)F)c(-c2cc(N3CCOCC3)nc(N3CCOCC3)n2)cn1` [Compound C, 5-(2,6-di-morpholin-4-yl-pyrimidin-4-yl)-4-trifluoromethyl-pyridin-2-ylamine]: in series [2] (setting [7]), the “Mean Tumor Vol. Change” value amounted to 542 mm^3, the Regression entry is given as “None” and the T/C is on record as 54% (ns^†). Also, in series [2] (setting [8]), the “Mean Tumor Vol. Change” value amounted to 475 mm^3 and the Regression entry is reported as “None”. Besides, the T/C in series [2] (Compound C 54.4 mg/kg p.o., 1x daily until day 7 (stopped due to toxicity), not evaluable (ne)) is 48% (ne).
For the molecule `CC(=O)O[C@H]1C(=O)[C@@]2(C)[C@H]([C@H](OC(=O)c3ccccc3)[C@]3(O)C[C@H](OC(=O)[C@H](O)[C@@H](NC(=O)c4ccccc4)c4ccccc4)C(C)=C1C3(C)C)[C@]1(OC(C)=O)CO[C@@H]1C[C@@H]2O` [Paclitaxel, reference compound], in series [2] (setting [9]), the “Mean Tumor Vol. Change” value was 53 mm^3, the Regression entry is on record as “None” and the T/C was 5%. The T/C in series [2] (Paclitaxel 30 mg/kg i.v., 1x on alternate days for 5 doses, listed as paclitaxel) is listed as 5%. The Dead/Total in series [3] (setting [9]) was 0/8.
Consider `CN(C)C(=N)N=C(N)N` [Metformin, dimethyldiguanide, reference compound], for which, in series [1] (breast cancer cells), the “AMPK activation (p-AMPK)” value was “activates AMPK”; the “levels of p-S6 ribosomal protein” value is “decreasing the levels of p-S6 ribosomal protein”; the “receptor tyrosine kinase (EGFR and HER2) expression” value was “reduced receptor tyrosine kinase (EGFR and HER2) expression”. Also, in series [1] (setting [10]), the “AMPK activation (p-AMPK)” value is listed as “activates p-AMPK” and the “p-MAPK / MAPK phosphorylation” value is recorded as “reduces p-MAPK; also recorded: decreased p-MAPK”. Further, the “MARK pathway transactivation induced by COMPOUND A” value in series [1] (metformin together with COMPOUND A) is “counteracts”. In series [2] (setting [11]), the “Mean Tumor Vol. Change” value came to 1003 mm^3, the Regression result is reported as “None” and the T/C is recorded as 101% (ns^†). In addition, in series [2] (metformin monotherapy at 192.3 mg/kg), the “modulation of tumor growth in the 20-day tumor growth inhibition assay” value is listed as “did not appear to modulate tumor growth”. Further, the “cell proliferation / growth inhibition” value in series [4] was “dose-dependent growth inhibition”. Moreover, the “cell proliferation / growth inhibition” value in series [4] (listed as metformin) is “inhbitor of HER2 negative breast cancer cell proliferation”. Besides, in series [3] (setting [11]), the Dead/Total was 0/8.
